Publication PMC9832347 (2023)

System: Probe DNA / complementary DNA (porcine) hybrid (DNA, duplex) CTGATAGTAGATTTGTGATGACCGTAGCCC/CTACGGTCATCACAAATCTACTATCAG
Experiment: differential pulse voltammetry, redox indicator on DNA electrode
Conditions: 30 μM 2b mixed with complementary DNA 1 × 10^-8 M; buffer wash; peak 1.45 μA; qualitative

For `CC1=NCCNC(C)(C)CC(C)=NCCNC(C)(C)C1.[Cu+2]`, the binding was “yes”.
